Tests used:
[1] = target: T1, dog GLP-1R (Canis lupus familiaris, UniProt A0A8I3NUR9); test: Agonistic activity on GLP-1R of different species (LANCE Ultra cAMP assay): dog; assay type: cell-based; conditions: ratio of EC50 value of other species to human EC50 value
T1 construct: expressed in transfected cells
T1 sequence (A0A8I3NUR9 1-464): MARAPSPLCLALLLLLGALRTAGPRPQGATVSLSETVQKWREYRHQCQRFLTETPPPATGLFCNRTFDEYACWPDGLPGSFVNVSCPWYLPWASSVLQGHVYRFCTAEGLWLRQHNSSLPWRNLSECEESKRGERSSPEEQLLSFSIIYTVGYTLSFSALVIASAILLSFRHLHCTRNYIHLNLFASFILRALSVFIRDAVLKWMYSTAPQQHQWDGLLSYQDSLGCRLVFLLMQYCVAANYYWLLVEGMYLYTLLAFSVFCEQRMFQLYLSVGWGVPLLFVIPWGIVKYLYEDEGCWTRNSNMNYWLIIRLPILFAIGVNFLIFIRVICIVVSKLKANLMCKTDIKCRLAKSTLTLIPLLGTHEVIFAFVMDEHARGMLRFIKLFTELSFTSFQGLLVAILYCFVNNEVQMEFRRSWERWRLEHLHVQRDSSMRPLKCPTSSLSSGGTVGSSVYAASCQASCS
Experimental: (§1) The in vitro agonistic activity of the compound of the present invention on GLP-1R was measured in cells stably expressing human, dog, mouse, rat, rabbit, and monkey GLP-1R (human GLP-1R-HEK, dog GLP-1R-HEK, mouse GLP-1R-HEK, rat GLP-1R- in HEK, rabbit GLP-1R-CHO, monkey GLP-1R-HEK cells). Human GLP-1R-HEK, dog GLP-1R-HEK, mouse GLP-1R-HEK, rat GLP-1R-HEK, rabbit GLP-1R-CHO, and monkey GLP-1R-HEK cells were resuspended in 1×Casein Stimulation Buffer (HBSS, 5 mM HEPES, 0.5 mM IBMX, 0.1% casein, pH7.4), and seeded into a 384-well cell culture plate at 9 µL/well (cell numbers being 1000, 1000, 1000, 1500, 1000, 1000 cells/well, respectively). 1 µL of 1×Casein Stimulation Buffer containing 10× compound was added to the above-mentioned 384-well cell culture plate. The plate was incubated at 37 °C for 30 minutes. After the incubation was completed, 5 µL of Eu-cAMP working solution and 5 µL of Ulight^TM-cAMP working solution were added sequentially, centrifuged and then incubated at room temperature for 1 hour. The readings at 665 nm and 620 nm were determined with a 330 nm excitation light on a microplate reader. The 665 nm/620 nm reading ratio was calculated. […] GraphPad was used to perform nonlinear regression according to the response percentage and the concentration of the compound added to obtain the EC50 value for each compound.

[2] = target: T2, rabbit GLP-1R (Oryctolagus cuniculus, UniProt G1SGD4); test: Agonistic activity on GLP-1R of different species (LANCE Ultra cAMP assay): rabbit; assay type: cell-based; conditions: ratio of EC50 value of other species to human EC50 value
T2 construct: expressed in transfected cells
T2 sequence (G1SGD4 24-462): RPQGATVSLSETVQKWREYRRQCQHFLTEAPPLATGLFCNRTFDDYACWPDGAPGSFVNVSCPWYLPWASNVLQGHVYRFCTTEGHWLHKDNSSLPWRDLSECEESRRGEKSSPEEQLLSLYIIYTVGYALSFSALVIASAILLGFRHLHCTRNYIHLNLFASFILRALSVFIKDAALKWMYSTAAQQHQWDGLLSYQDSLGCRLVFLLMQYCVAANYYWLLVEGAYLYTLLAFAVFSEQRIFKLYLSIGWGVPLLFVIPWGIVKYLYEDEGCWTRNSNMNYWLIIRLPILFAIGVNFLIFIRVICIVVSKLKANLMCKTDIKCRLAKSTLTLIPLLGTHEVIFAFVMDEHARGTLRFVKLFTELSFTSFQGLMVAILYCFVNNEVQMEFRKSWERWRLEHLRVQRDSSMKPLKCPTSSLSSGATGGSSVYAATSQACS
Experimental: as §1

[3] = tested on: obese dogs; test: Weight loss efficacy in obese dogs; assay type: in vivo; conditions: for SFV, change rate in abdominal fat indicators / TFV, change rate in abdominal fat indicators / VFV, change rate in abdominal fat indicators / rSFV, change rate in abdominal fat indicators / rVFV, change rate in abdominal fat indicators: Mean±SEM
Experimental: In this study, the compound of the present invention was administered subcutaneously to obese dogs multiple times to detect changes in their body weights and elucidate the weight loss effect of the compound. Obese dogs aged 8 months or older with a body condition score (BCS) ≥6 were used in this study. The dogs were housed in appropriately sized cages under controlled environmental conditions with a room temperature of 20-26°C and a relative humidity of 40%-70%, and had free access to food and water. Experimental dogs with similar body weights and BCSs (body weight: 15~24 kg, BCS: 6~9) were randomly divided into four groups (n=6 per group): G1, G2, G3, and G4. Group G1 served as the vehicle control group. […] For Group G2 obese dogs, the first dose (4 nmol/kg) was administered on Day 1 (D1) and Day 8 (D8), adjusted to the second dose (6 nmol/kg) on Day 15 (D15), and further adjusted to the third dose ([…]) on Day 22 (D22), which third dose (96 nmol/kg) was maintained for the subsequent administrations on Day 29 (D29) and Day 36 (D36). For Group G3 obese dogs, the first dose (12 nmol/kg) was administered on D1 and D8, adjusted to the second dose (19 nmol/kg) on D15, and further adjusted to the third dose ([…]) on D22, which third dose (385 nmol/kg) was also maintained for the subsequent administrations on D29 and D36. For Group G4 dogs, the positive control Dirlotapide was administered orally at a dose of 0.5 mg/kg once per day (QD) for 42 consecutive days.
After administration, the body weights of dogs in Group G4 receiving Dirlotapide were measured at a fixed time once daily, while the body weights of dogs in the other groups (G1, G2, and G3) were measured at a fixed time once every 7 days. Food intake was measured once per day after administration. Blood tests for routine and biochemical parameters were conducted before grouping and on D43. Imaging examinations of abdominal fat volume were performed before grouping and from D43 to D45 to measure total abdominal fat volume (TFV) and visceral abdominal fat volume (VFV), and to calculate subcutaneous abdominal fat (SFV). Body condition score (BCS), body mass index (BMI), and abdominal circumference (AC) were measured once a week. The data were statistically analyzed using ANOVA. If ANOVA was statistically significant (p < 0.05) and variances were homogeneous, Tukey's test was used for intergroup comparison. If variances were heterogeneous, Dunnet's T3 test was used. Results were expressed as mean ± standard error of the mean (Mean ± SEM). The significance level was set at 0.05, and both statistical and biological significance were considered in the analysis.

[4] = D43, 4/6/96 nmol/kg s.c. QW, six administrations
[5] = D43, 12/19/385 nmol/kg s.c. QW, six administrations

SMILES: CC[C@H](C)[C@H](NC(=O)C(C)(C)NC(=O)[C@H](Cc1ccc(O)cc1)NC(=O)[C@H](CC(=O)O)NC(=O)[C@H](CO)NC(=O)[C@@H](NC(=O)C(C)(Cc1ccccc1)NC(=O)[C@@H](NC(=O)CNC(=O)[C@H](CCC(=O)O)NC(=O)C(C)(C)NC(=O)[C@@H](N)Cc1ccc(O)cc1)[C@@H](C)O)[C@@H](C)O)C(=O)NC(C)(C)C(=O)N[C@@H](CC(C)C)C(=O)N[C@@H](CC(=O)O)C(=O)N[C@@H](CCCCN)C(=O)N[C@@H](CCC(N)=O)C(=O)N[C@@H](C)C(=O)N[C@@H](CCC(N)=O)C(=O)N[C@@H](C)C(=O)N[C@@H](CCC(=O)O)C(=O)N[C@@H](Cc1ccccc1)C(=O)N[C@H](C(=O)N[C@@H](CCCCNC(=O)COCCOCCNC(=O)COCCOCCNC(=O)COCCOCCNC(=O)CC[C@H](NC(=O)CCCCCCCCCCCCCCCCCCCCC(=O)O)C(=O)O)C(=O)N[C@@H](Cc1c[nH]c2ccccc12)C(=O)N[C@@H](CC(C)C)C(=O)N[C@@H](CC(C)C)C(=O)N[C@@H](CCCCN)C(=O)NCC(=O)NCC(=O)N1CCC[C@H]1C(=O)N[C@@H](CO)C(=O)N[C@@H](CO)C(=O)NCC(=O)N[C@@H](C)C(=O)N1CCC[C@H]1C(=O)N1CCC[C@H]1C(=O)N1CCC[C@H]1C(=O)N[C@@H](CO)C(=O)N[C@@H](CCCCN)C(N)=O)C(C)C (stereo partly drawn) [Compound P016]
- GLP-1R EC50 ratio [1]: 4.52
- GLP-1R EC50 ratio [2]: 1.05
- SFV, change rate in abdominal fat indicators [3, 4]: -18.11±4.49
- TFV, change rate in abdominal fat indicators [3, 4]: -16.16±5.88
- VFV, change rate in abdominal fat indicators [3, 4]: -10.81±10.19
- rSFV, change rate in abdominal fat indicators [3, 4]: 4.80±6.52
- rVFV, change rate in abdominal fat indicators [3, 4]: -1.51±3.56
- SFV, change rate in abdominal fat indicators [3, 5]: -15.14±4.56
- TFV, change rate in abdominal fat indicators [3, 5]: -13.00±4.47
- VFV, change rate in abdominal fat indicators [3, 5]: -9.42±5.39
- rSFV, change rate in abdominal fat indicators [3, 5]: 4.19±4.19
- rVFV, change rate in abdominal fat indicators [3, 5]: -2.41±2.12
- effective dose for weight loss ([3]; s.c. QW escalating doses): 96 nmol/kg
- effective dose for weight loss ([3]; s.c. QW escalating doses, equivalent of the nmol/kg dose): 0.5 mg/kg
- maximum weight loss ([3]; s.c. QW escalating doses, six administrations): 9.51%
